Laboratory results: patent publication US9682013B2, “Pharmaceutical compositions comprising human antibodies to PCSK9” (SANOFI BIOTECHNOLOGY, priority 2011, dated 2017)

Experiments:
[1] = test system: patients with heterozygous familial hypercholesterolemia (heFH); assay: Study 6: randomized, placebo-controlled 12-week trial in heFH on statin with or without ezetimibe (interim analysis); format: in vivo, human; conditions: every two or four weeks
Procedure: A randomized, double-blind, multi-dose, placebo controlled, 75-patient trial in patients with heterozygous familial hypercholesterolemia (heFH). In this trial, patients must meet the World Health Organization criteria for heFH, be on a stable daly statin regimen for at least 6-weeks before entering the trial, and have serum LDL-C levels ≧100 mg/dL. Patients were permitted to be taking ezetimibe in addition to a daily statin. The primary endpoint of the study is the change in LDL cholesterol from baseline compared to placebo over the 12-week study period.
Patients treated with different doses of 316P achieved mean LDL-C reductions of approximately 30% to greater than 60% from baseline at 12-weeks compared to a 10% reduction with placebo (p<0.01), which was the primary endpoint of the study. The interim analysis was conducted when all patients completed the primary endpoint at 12-weeks.

male Syrian hamster = assay: Study 4: cholesterol lowering effect of 316P alone and with atorvastatin in hamster; format: in vivo
Description: This is an animal study on the cholesterol lowering effect of 316P, a fully human PCSK9 blocking monoclonal antibody in male Syrian hamster
The aim of this study was to investigate the effect of 316P, a human monoclonal antibody to human PCSK9, alone and in combination with statins on expression of the hepatic LDLR and the resulting effects on serum LDL-C.
The maximal effect on LDL-C (−17/−27/−60%) was seen within 7 days. PK data of 316P are in line with the dose-dependent effect on LDL-C.

hPCSK9 = hPCSK9 (Homo sapiens, UniProt Q8NBP7); conditions: unmutated hPCSK9; cited from earlier work
[2] = test system: patients with an elevated LDL-C (≧100 mg/dL or 2.59 mmol/L) treated with a stable dose of atorvastatin 10 mg; assay: Study 2: randomized, double-blind, placebo-controlled 8-week study of 316P 150 mg E2W with atorvastatin 10 mg or 80 mg; format: in vivo, human
Procedure: This was a randomized, double-blind, 3-parallel-groups, placebo-controlled, fixed dose/dose regimen, multicenter, 8-week study in subjects with primary hypercholesterolemia, aged 18-75 years. One aim of this study was to assess the efficacy and safety of 316P in patients with an elevated LDL-C (≧100 mg/dL or 2.59 mmol/L) treated with a stable dose of atorvastatin 10 mg.
During the screening period, patients had to be stabilized to atorvastatin 10 mg for at least 6 weeks, if they are not already. Then, after 1 additional screening week, patients were centrally randomized via IVRS/IWRS in a 1:1:1 ratio to one of the 3 treatment groups (placebo for 316P+atorvastatin 80 mg, 316P 150 mg E2W+atorvastatin 80 mg, 316P 150 mg E2W+atorvastatin 10 mg) and treated in a double-blind manner for approximately 8 weeks. 316P was administered every 2 weeks on site trough subcutaneous injection and atorvastatin was administered orally once daily in the evening at home. The double-blind treatment period was then followed by an 8-week follow-up period.
Inclusion criteria: • Patients (patients receiving a lipid lowering treatment other than atorvastatin/or not at stable dose of atorvastatin 10 mg for at least 6 weeks prior to screening period, or drug naive patients) with primary hypercholesterolemia likely to have low-density lipoprotein cholesterol (LDL-C)≧100 mg/dL (≧2.59 mmol/L) at the end of the run-in period on atorvastatin therapy (Week-1). • OR • Patients with primary hypercholesterolemia treated with stable dose of atorvastatin 10 mg for at least 6 weeks prior to screening period and likely to have low-density lipoprotein cholesterol (LDL-C)≧100 mg/dL (≧2.59 mmol/L) at the screening visit (Week-1).
Duration of Study Period Per Subject:
• Arm 1: The first group of patients receives one subcutaneous injection of 1 mL of antibody 316P, administered in the abdomen every two weeks, with a dose regimen at 150 mg, for a double-blind treatment period of 8 weeks; • Atorvastatin is administered once per day at a stable dose of 10 mg as background therapy. • Atorvastatin is administered at a dose of 80 mg once during the double-blind treatment period of 8 weeks. • Arm 2: The second group of patients receives one subcutaneous injection of 1 mL of a placebo solution, administered in the abdomen every two weeks, with a dose regimen at 150 mg, for a double-blind treatment period of 8 weeks; • Atorvastatin is administered once per day at a stable dose of 10 mg as background therapy. • Atorvastatin is administered at a dose of 80 mg (2 over-encapsulated atorvastatin 40 mg tablets) once during the double-blind treatment period of 8 weeks. • Arm 3: The third group of patients receives one subcutaneous injection of 1 mL of antibody 316P, administered in the abdomen every two weeks, with a dose regimen at 150 mg, for a double-blind treatment period of 8 weeks; • Atorvastatin is administered once per day at a stable dose of 10 mg as background therapy. • Atorvastatin is administered at a dose of 10 mg (1 over-encapsulated atorvastatin 10 mg tablet+1 matching placebo tablet) once during the double-blind treatment period of 8 weeks. Primary and Key Secondary Endpoints Primary Endpoints
The primary efficacy variable is the percent change in calculated LDL-C from baseline to Week 8, which is defined as: 100×(calculated LDL-C value at Week 8-calculated LDL-C value at baseline)/calculated LDL-C value at baseline.
In case of unavailable calculated LDL-C value at Week 8 as defined above, then the last calculated LDL-C value measured during the efficacy period and before the Week 8 time window was used to impute the missing Week 8 calculated LDL-C value (Last Observation Carried Forward [LOCF] procedure). […]

[3] = single s.c. injection 1/3/10 mg/kg
[4] = 316P 150 mg with atorvastatin, 8 weeks, consistent with LDL-C decrease
[5] = 316P 150 mg+atorvastatin 80 mg vs placebo+atorvastatin 80 mg, p<0.0001

Sequence of hPCSK9 (Q8NBP7 153-692): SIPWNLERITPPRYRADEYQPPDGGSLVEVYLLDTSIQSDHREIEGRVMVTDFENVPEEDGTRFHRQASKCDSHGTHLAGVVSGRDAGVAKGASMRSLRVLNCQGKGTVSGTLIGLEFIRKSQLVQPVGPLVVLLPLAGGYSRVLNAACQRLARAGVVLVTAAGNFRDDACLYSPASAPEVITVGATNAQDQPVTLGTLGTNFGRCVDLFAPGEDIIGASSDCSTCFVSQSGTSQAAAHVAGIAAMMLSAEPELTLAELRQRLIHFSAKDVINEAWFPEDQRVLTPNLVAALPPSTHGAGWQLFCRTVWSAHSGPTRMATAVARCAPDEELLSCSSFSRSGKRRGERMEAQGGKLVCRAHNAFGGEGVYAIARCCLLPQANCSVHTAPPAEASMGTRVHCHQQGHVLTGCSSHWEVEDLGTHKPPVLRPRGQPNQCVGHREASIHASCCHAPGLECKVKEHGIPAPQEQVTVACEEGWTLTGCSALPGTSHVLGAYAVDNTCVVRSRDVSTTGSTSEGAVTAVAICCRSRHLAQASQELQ

316P: fully human anti-PCSK9 antibody comprising a HCVR as shown in SEQ ID NO: 90 and LCVR as shown in SEQ ID NO: 92 [Antibody 316P]
mean LDL-C reductions at 12-weeks compared to placebo [1]: significantly greater mean LDL-C reductions | LDLR expression (male Syrian hamster; 316P on top of Atorvastatin): increased LDLR expression | serum LDL-C (male Syrian hamster; 316P on top of Atorvastatin): decreased serum LDL-C | statin resistance (male Syrian hamster; 316P on top of Atorvastatin): could overcome the statin resistance | combination treatment compared with single treatment (male Syrian hamster; 316P plus Atorvastatin): more effective than single treatment with 316P alone | maximal effect on LDL-C (male Syrian hamster; single s.c. injection 1 mg/kg): −17% | maximal effect on LDL-C (male Syrian hamster; single s.c. injection 3 mg/kg): −27% | maximal effect on LDL-C (male Syrian hamster; single s.c. injection 10 mg/kg): −60% | duration of dose-dependent decrease in LDL-C (male Syrian hamster; [3]): more than 2 weeks | time to maximal effect on LDL-C (male Syrian hamster; [3]): ≤ 7 days | Kd (hPCSK9): ~1 nM | safety signal ([2]; 150 mg E2W, 8 weeks): No particular safety signal was noted | tolerability ([2]; 150 mg E2W, 8 weeks of treatment, all treatment groups): well tolerated | HDL-C ([2]; 316P 150 mg co-administered with atorvastatin 10 mg or 80 mg): trend of increase | HDL-C percent change from baseline, LS mean ([2]; 316P 150 mg co-administered with atorvastatin 10 mg, 8 weeks): +2.6% | HDL-C percent change from baseline, LS mean ([2]; 316P 150 mg co-administered with atorvastatin 80 mg, 8 weeks): +5.8% | Apo-B/ApoA-1 ratio [2, 4]: Consistent results | ApoB [2, 4]: Consistent results | Total-C [2, 4]: Consistent results | non HDL-C [2, 4]: Consistent results | median reduction from baseline in LDL-C at 8 weeks ([2]; 316P 150 mg+atorvastatin 10 mg group): −70.4% | median reduction from baseline in LDL-C at 8 weeks ([2]; 316P 150 mg+atorvastatin 80 mg group): −70.6% | LS mean difference in percent change from baseline in LDL-C at 8 weeks [2, 5]: −55.8% | effect size estimate, rank-based analysis of covariance, percent change in LDL-C at 8 weeks [2, 5]: −54.5% | troponin levels ([2]; all treatment groups): no change
